In ChEMBL document CHEMBL5113376, “Antimalarial application of quinones: A recent update” (Eur J Med Chem, 2021):
≈ marks a conversion by molar mass, not a printed value. Blank lines part the entries; values can stand above or below the compound they belong to.

Assays:
Plasmodium falciparum [1] = test: Antimalarial activity against Plasmodium falciparum 3D7 infected in human erythrocytes; format: functional, organism-based; conditions: 3D7, Erythrocyte
Plasmodium falciparum [2] = test: Antimalarial activity against Plasmodium falciparum W2 incubated for 24 hrs; format: functional, organism-based; conditions: for IC50: Plasmodium falciparum, W2, 24 h
Plasmodium falciparum [3] = test: Antiplasmodial activity against Chloroquine resistant Plasmodium falciparum FcB1 incubated for 48 hrs by SYBR green I based fluorescence assay; format: functional, organism-based; conditions: FcB1, 48 h
Plasmodium berghei [4] = test: In vivo plasmodial activity against Plasmodium berghei ANKA infected in Swiss mouse assessed as survival rate at 50 mg/kg, ip for 4 days after infection relative to control; format: functional; conditions: time 4 day
Plasmodium falciparum [5] = test: Antimalarial activity against chloroquine resistant Plasmodium falciparum K1 incubated for 72 hrs by SYBR green staining based fluorescence reader method; format: functional, organism-based; conditions: K1, 72 h
[6] = Cytotoxicity against African green monkey Vero cells; format: toxicity, cell-based; conditions: chlorocebus sabaeus
[7] = Selectivity index, ratio of CC50 for african green monkey Vero cells to IC50 for Chloroquine resistant Plasmodium falciparum K1; format: toxicity; conditions: read-out: Ratio CC50/IC50
Plasmodium falciparum [8] = test: Antiplasmodial activity against Plasmodium falciparum K1; format: functional, organism-based
Plasmodium falciparum [9] = test: Antimalarial activity against Plasmodium falciparum W2; format: functional, organism-based
Plasmodium falciparum [10] = test: Antimalarial activity against Plasmodium falciparum D10; format: functional, organism-based
[11] = Cytotoxicity against HMEC-1 cells; format: toxicity, cell-based; conditions: human
Plasmodium falciparum [12] = test: Antimalarial activity against Plasmodium falciparum Dd2 treated for 48 hrs followed by hypoxanthine addition; format: functional, organism-based; conditions: Dd2, 48 h
Plasmodium berghei [13] = test: In vivo antiplasmodial activity against Chloroquine susceptible Plasmodium berghei ANKA infected in CD-1 mouse assessed as decrease in parasitaemia at 30 to 50 mg/kg/day, ip relative to control; format: functional; design: scale not given: the % may be the effect or the level left; conditions: dose 30-50 mg/kg/day
Plasmodium falciparum [14] = test: Antiplasmodial activity against Chloroquine resistant Plasmodium falciparum FcB1 incubated for 48 hrs; format: functional, organism-based; conditions: FcB1, 48 h
Plasmodium falciparum [15] = test: Antiplasmodial activity against Chloroquine resistant plasmodium falciparum FCR-3; format: functional, organism-based
Plasmodium falciparum [16] = test: Antimalarial activity against Plasmodium falciparum K14 incubated for 42 hrs in presence of 3H-hypoxanthine by top-count microbeta counter analysis; format: functional, organism-based
Plasmodium falciparum [17] = test: Antimalarial activity against chloroquine sensitive Plasmodium falciparum D10 incubated for 72 hrs by spectrophotometric analysis; format: functional, organism-based; conditions: D10, 72 h
Plasmodium falciparum [18] = test: Antimalarial activity against chloroquine resistant Plasmodium falciparum W2 incubated for 72 hrs by spectrophotometric analysis; format: functional, organism-based; conditions: W2, 72 h
[19] = Cytotoxicity against HMEC-1 cells treated for 72 hrs by MTT assay; format: toxicity, cell-based; conditions: human
Plasmodium falciparum [20] = test: Antiplasmodial activity against chloroquine sensitive Plasmodium falciparum F-32 Tanzania incubated for 48 hrs; format: functional, organism-based
Plasmodium falciparum [21] = test: Antimalarial activity against Plasmodium falciparum K1 by 96-well microtitre plate method based scintillation counting analysis; format: functional, organism-based; conditions: Plasmodium falciparum, K1
Plasmodium falciparum [22] = test: Antimalarial activity against Plasmodium falciparum Dd2 by 96-well microtitre plate method based scintillation counting analysis; format: functional, organism-based
Plasmodium falciparum [23] = test: Antiplasmodial activity against Plasmodium falciparum Dd2 incubated for 48 hrs; format: functional, organism-based; conditions: Dd2, 48 h
Plasmodium falciparum [24] = test: Antiplasmodial activity against Plasmodium falciparum 3D7 incubated for 48 hrs; format: functional, organism-based; conditions: 3D7, 48 h

Structure (SMILES): COc1ccc2c(c1)C(=O)C(=O)C1=C2OC(C)C1(C)C (stereo not given)
IC50 (Plasmodium falciparum [3]): 845 nM
Activity (Plasmodium berghei [4]): 100%

Structure (SMILES): COc1ccc2c(c1)C1=C(C(=O)C2=O)C(C)(C)C(C)O1 (stereo not given)
IC50 (Plasmodium falciparum [3]): 580 nM

Structure (SMILES): COc1cccc2c1C1=C(C(=O)C2=O)C(C)(C)C(C)O1 (stereo not given)
IC50 (Plasmodium falciparum [3]): 630 nM
Activity (Plasmodium berghei [4]): 80%

Structure (SMILES): Cc1cc(O)c2c(c1)C(=O)c1cc(O)c(CN3CCN(C)CC3)c(O)c1C2=O
IC50 (Plasmodium falciparum [5]): 2480 nM
CC50 [6]: 782000 nM
selectivity ratio [7]: 315

Structure (SMILES): O=C(O)c1ccc2c(n1)C(=O)C1=C(C2=O)S(=O)(=O)C=CN1
IC50 (Plasmodium falciparum [8]): 600 nM

Structure (SMILES): COc1cc2c(cc1O)CO[C@@H]1C3=C(OC[C@H]21)C(=O)c1ccccc1C3=O
IC50 (Plasmodium falciparum [14]): 40 nM

Structure (SMILES): COC(=O)/C(=C\CC/C(C)=C/CC/C(C)=C/CC1=CC(=O)C=C(C)C1=O)CCC=C(C)C
IC50 (Plasmodium falciparum [15]): 8200 nM

Structure (SMILES): CN(C)c1ccc(N2C(=O)C(Oc3ccc(Cl)cc3Cl)C2c2ccc3c(c2)C(=O)c2ccccc2C3=O)cc1 (stereo not given)
IC50 (Plasmodium falciparum [16]): 48000 nM

Structure (SMILES): COc1cc2c(cc1O)[C@H]1COC3=C(C(=O)c4ccccc4C3=O)[C@H]1OC2
IC50 (Plasmodium falciparum [14]): 30 nM

Structure (SMILES): CCC1=C(NC(=O)C(C)(C)C)C(=O)C2=C(NCCS2(=O)=O)C1=O
IC50 (Plasmodium falciparum [17]): 390 nM
IC50 (Plasmodium falciparum [18]): 580 nM
IC50 at 72 h [19]: 1600 nM

Structure (SMILES): O=C1c2ccccc2C(=O)c2cc(C3C(Oc4ccc(Cl)cc4)C(=O)N3c3cccc4ccccc34)ccc21 (stereo not given)
IC50 (Plasmodium falciparum [16]): 45000 nM

Structure (SMILES): O=C1c2ccccc2C(=O)c2cc(C3C(Oc4ccccc4)C(=O)N3c3cccc4ccccc34)ccc21 (stereo not given)
IC50 (Plasmodium falciparum [16]): 41000 nM

Structure (SMILES): COc1ccc(N2C(=O)C(Oc3ccccc3)C2c2ccc3c(c2)C(=O)c2ccccc2C3=O)cc1 (stereo not given)
IC50 (Plasmodium falciparum [16]): 27000 nM

Structure (SMILES): O=C1C=C(OCc2cn(/C=C/c3ccc(C(F)(F)F)cc3)nn2)C(=O)c2ccccc21
IC50 (Plasmodium falciparum [20]): 3300 nM

Structure (SMILES): CCC1=C(NC(=O)C(C)(C)C)C(=O)C2=C(C1=O)S(=O)(=O)CCN2
IC50 (Plasmodium falciparum [17]): 6150 nM
IC50 (Plasmodium falciparum [18]): 6310 nM
IC50 at 72 h [19]: > 100000 nM

Further lines, with some results ahead:

IC50 (Plasmodium falciparum [1]): 16000 nM
Structure (SMILES): COc1ccc(CC2=C(O)C(=O)c3ccccc3C2=O)cc1

IC50 (Plasmodium falciparum [2]): 2300 nM
Structure (SMILES): CC(=O)OC1=C(CC=C(C)C)C(=O)c2ccccc2C1=O
IC100 (Plasmodium falciparum [2]; time 24 hrs): 4.7 µM

IC50 (Plasmodium falciparum [1]): 15200 nM
Structure (SMILES): CC(C)(C)CC1=C(O)C(=O)c2ccccc2C1=O

IC50 (Plasmodium falciparum [2]): 15800 nM
Structure (SMILES): CC1(C)OC2=C(CC1I)C(=O)C(=O)c1ccccc12 (stereo not given)

IC50 (Plasmodium falciparum [9]): 1210 nM
IC50 (Plasmodium falciparum [10]): 1220 nM
Structure (SMILES): COC1=C(Cc2ccc(OC)cc2)C(=O)C2=C(NCCS2(=O)=O)C1=O
IC50 [11]: 17900 nM

IC50 (Plasmodium falciparum [12]): 55 nM
Structure (SMILES): CC1=C(Cc2ccc(O)cc2)C(=O)c2ccccc2C1=O
Activity (Plasmodium berghei [13]): 20.7%

IC50 (Plasmodium falciparum [20]): 1200 nM
Structure (SMILES): O=C1C=C(OCc2cn(-c3ccccc3)nn2)C(=O)c2ccccc21

IC50 (Plasmodium falciparum [8]): 35 nM
Structure (SMILES): O=C(O)c1cc2c(s1)C(=O)C1=C(C2=O)S(=O)(=O)C=CN1

IC50 (Plasmodium falciparum [12]): 54 nM
Structure (SMILES): CC1=C(Cc2ccc(C(C)(C)C)cc2)C(=O)c2ccccc2C1=O
Activity (Plasmodium berghei [13]): 20.7%

IC50 (Plasmodium falciparum [9]): 1630 nM
IC50 (Plasmodium falciparum [10]): 1900 nM
Structure (SMILES): COC1=C(Cc2ccc(Cl)cc2)C(=O)C2=C(NCCS2(=O)=O)C1=O
IC50 [11]: 8510 nM

IC50 (Plasmodium falciparum [21]): 0.751 µg/mL (≈ 1.67 µM)
Structure (SMILES): COc1cc(OC)c(-c2c(C)cc(O)c3c2C(=O)c2cccc(O)c2C3=O)c(O)c1C(C)=O

IC50 (Plasmodium falciparum [22]): 1.57 µg/mL (≈ 2.9 µM)
Structure (SMILES): Cc1cc2c(c(C3=C(O)C(=O)c4c(O)ccc(O)c4C3=O)c1)C(=O)c1c(O)c3c(c(O)c1C2=O)C=CC(C)(C)O3

IC50 (Plasmodium falciparum [23]): 220 nM
IC50 (Plasmodium falciparum [24]): 2400 nM
Structure (SMILES): CCCC/C=C/C1=C(O)C(=O)c2ccccc2C1=O

IC50 (Plasmodium falciparum [22]): 0.8 µg/mL (≈ 2.92 µM)
Structure (SMILES): CC(C)=CCC1=C(O)C(=O)c2c(O)ccc(O)c2C1=O
